Values after ≈ are worked out from the molar mass of the structure shown. Where two headings read alike, the source gives them in different places.
Assays:
[1] = target: T1, B. subtilis Pol IIIC (Bacillus subtilis, UniProt P13267); experiment: Polymerase IIIC (Pol IIIC) assay, determination of Ki values; type: biochemical; conditions: Ki (µM) Pol IIIC, assay in absence of dGTP or dATP; Ki is the concentration that reduces control polymerase IIIC activity by 50 percent
T1 construct: made in house
Description: (§1) The following methods were used to characterize representative compounds. Minimal Inhibitory Concentration (MIC) determinations. MIC values were determined in 96 well plates, with bacterial growth monitored at OD 600 nm in 200µl following an initial bacterial seeding at approximately 1x10^5 colony forming units (CFU)/ml. Each drug is evaluated at five concentrations, with five data points at each dilution. MIC values (µg/ml) were determined against actively growing cultures in Heart-Brain Infusion (HBI) medium. Cell growth in cultures supplemented with a test compound was calculated as a percent of control at OD 600 nm after 16 to 18 hours at 37°C. […] Polymerase IIIC (Pol IIIC) assay. DNA polymerase activity (or inhibition thereof) was measured in a 96-well plate format. B. subtilis Pol IIIC was isolated as described by Hammond and Brown (Protein Expr. Purif., 3: 65-70 (1992)). Each 25 µl assay contained 30 mM Tris, pH 7.5, 10 mM magnesium acetate, 4 mM dithiothreitol, 20% glycerol, with 25 µM dATP, dCTP, dGTP and 10 µM dTTP (^3H-labelled at 1.44 Ci/mmole) and 0.4 mg/ml activated calf thymus DNA as substrates, as described previously (see Barnes et al, op. cit). Assays were initiated by the addition of 0.025 to 0.06 units of enzyme 1 unit is the amount required to incorporate 250 pmoles of [^3H] dTMP in a standard assay), incubated for 10 minutes at 30°C and terminated by the addition of 200 µl of cold 10% trichloroacetic acid (TCA),10 mM sodium pyrophosphate. Precipitated labeled DNA was collected on glass fiber filter plates, washed, dried, and counted in a liquid scintillation counter. Determination of Ki values. DNA polymerase activity was measured in a 96-well plate format in the absence of dGTP or dATP, depending on the structure of the test compound. Each 25 µl assay contained 30 mM Tris, pH 7.5, 10 mM magnesium acetate, 4 mM dithiothreitol, 20% glycerol, with 25 µM dATP, dCTP, and 10 µM dTTP (^3H-labelled at 1.44 Ci/mmole) and 0.4 mg/ml activated calf thymus DNA as substrates, as described previously. […] Assays were initiated by the addition of 0.025 to 0.06 units of enzyme (1 unit is the amount required to incorporate 250 pmoles of [^3H] dTMP in a standard assay), incubated for 10 minutes at 30 °C and terminated by the addition of 200 µl of cold 10% trichloroacetic acid, 10 mM sodium pyrophosphate. Precipitated labeled DNA was collected on glass fiber filter plates, washed, dried, and counted in a liquid scintillation counter. Ki is the concentration of test compound that reduces the control polymerase IIIC activity by 50 percent.

[2] = tested on: B. subtilis; experiment: Minimal Inhibitory Concentration (MIC) determination, 96 well plates; type: cell-based, Bacillus subtilis; conditions: Bacillus subtilis; HBI medium, 16 to 18 hours at 37°C; read-out: MIC (µg/ml) B. subtilis
Description: as §1
(§2) MIC values were determined for the Gram positive bacteria Bacillus subtilis, Staphylococcus aureus (two strains), Enterococcus fecalis, Enterococcus fecium, and for the Gram negative bacterium Escherichia coli.

[3] = tested on: S. aureus; experiment: as above; type: cell-based, Staphylococcus aureus; conditions: Staphylococcus aureus; HBI medium, 16 to 18 hours at 37°C; read-out: MIC (µg/ml) S. aureus
Description: (§3) The following methods were used to characterize representative compounds. Minimal Inhibitory Concentration (MIC) determinations. MIC values were determined in 96 well plates, with bacterial growth monitored at OD 600 nm in 200µl following an initial bacterial seeding at approximately 1x10^5 colony forming units (CFU)/ml. Each drug is evaluated at five concentrations, with five data points at each dilution. MIC values (µg/ml) were determined against actively growing cultures in Heart-Brain Infusion (HBI) medium. Cell growth in cultures supplemented with a test compound was calculated as a percent of control at OD 600 nm after 16 to 18 hours at 37°C. This plate format conserves test compound and provides precise, quantitative data with low standard deviation determinations. Polymerase IIIC (Pol IIIC) assay. DNA polymerase activity (or inhibition thereof) was measured in a 96-well plate format. B. subtilis Pol IIIC was isolated as described by Hammond and Brown (Protein Expr. Purif., 3: 65-70 (1992)). Each 25 µl assay contained 30 mM Tris, pH 7.5, 10 mM magnesium acetate, 4 mM dithiothreitol, 20% glycerol, with 25 µM dATP, dCTP, dGTP and 10 µM dTTP (^3H-labelled at 1.44 Ci/mmole) and 0.4 mg/ml activated calf thymus DNA as substrates, as described previously (see Barnes et al, op. cit). Assays were initiated by the addition of 0.025 to 0.06 units of enzyme 1 unit is the amount required to incorporate 250 pmoles of [^3H] dTMP in a standard assay), incubated for 10 minutes at 30°C and terminated by the addition of 200 µl of cold 10% trichloroacetic acid (TCA),10 mM sodium pyrophosphate. Precipitated labeled DNA was collected on glass fiber filter plates, washed, dried, and counted in a liquid scintillation counter. Determination of Ki values. DNA polymerase activity was measured in a 96-well plate format in the absence of dGTP or dATP, depending on the structure of the test compound. Each 25 µl assay contained 30 mM Tris, pH 7.5, 10 mM magnesium acetate, 4 mM dithiothreitol, 20% glycerol, with 25 µM dATP, dCTP, and 10 µM dTTP (^3H-labelled at 1.44 Ci/mmole) and 0.4 mg/ml activated calf thymus DNA as substrates, as described previously. To each well were added 2 µl of compound solution to give final concentrations ranging from 20 - 0.027 µg/ml in the assay. Assays were initiated by the addition of 0.025 to 0.06 units of enzyme (1 unit is the amount required to incorporate 250 pmoles of [^3H] dTMP in a standard assay), incubated for 10 minutes at 30 °C and terminated by the addition of 200 µl of cold 10% trichloroacetic acid, 10 mM sodium pyrophosphate. Precipitated labeled DNA was collected on glass fiber filter plates, washed, dried, and counted in a liquid scintillation counter. Ki is the concentration of test compound that reduces the control polymerase IIIC activity by 50 percent.
as §2

[4] = tested on: S.aureus (Smith); experiment: as above; type: cell-based, Staphylococcus aureus; conditions: Staphylococcus aureus; HBI medium, 16 to 18 hours at 37°C; read-out: MIC (µg/ml) S.aureus (Smith)
Description: as §1, §2

[5] = tested on: E. fecalis; experiment: as above; type: cell-based, Enterococcus fecalis; conditions: Enterococcus; HBI medium, 16 to 18 hours at 37°C; read-out: MIC (µg/ml) E. fecalis
Description: as §1, §2

[6] = tested on: E. fecium; experiment: as above; type: cell-based, Enterococcus fecium; conditions: Enterococcus; HBI medium, 16 to 18 hours at 37°C; read-out: MIC (µg/ml) E. fecium
Description: as §1, §2

[7] = tested on: E. coli; experiment: as above; type: cell-based, Escherichia coli; conditions: Escherichia coli, read-out: MIC (µg/ml) E. coli
Description: as §3, §2

[8] = HBI medium, 16 to 18 hours at 37°C

T1 sequence (P13267 whole entry): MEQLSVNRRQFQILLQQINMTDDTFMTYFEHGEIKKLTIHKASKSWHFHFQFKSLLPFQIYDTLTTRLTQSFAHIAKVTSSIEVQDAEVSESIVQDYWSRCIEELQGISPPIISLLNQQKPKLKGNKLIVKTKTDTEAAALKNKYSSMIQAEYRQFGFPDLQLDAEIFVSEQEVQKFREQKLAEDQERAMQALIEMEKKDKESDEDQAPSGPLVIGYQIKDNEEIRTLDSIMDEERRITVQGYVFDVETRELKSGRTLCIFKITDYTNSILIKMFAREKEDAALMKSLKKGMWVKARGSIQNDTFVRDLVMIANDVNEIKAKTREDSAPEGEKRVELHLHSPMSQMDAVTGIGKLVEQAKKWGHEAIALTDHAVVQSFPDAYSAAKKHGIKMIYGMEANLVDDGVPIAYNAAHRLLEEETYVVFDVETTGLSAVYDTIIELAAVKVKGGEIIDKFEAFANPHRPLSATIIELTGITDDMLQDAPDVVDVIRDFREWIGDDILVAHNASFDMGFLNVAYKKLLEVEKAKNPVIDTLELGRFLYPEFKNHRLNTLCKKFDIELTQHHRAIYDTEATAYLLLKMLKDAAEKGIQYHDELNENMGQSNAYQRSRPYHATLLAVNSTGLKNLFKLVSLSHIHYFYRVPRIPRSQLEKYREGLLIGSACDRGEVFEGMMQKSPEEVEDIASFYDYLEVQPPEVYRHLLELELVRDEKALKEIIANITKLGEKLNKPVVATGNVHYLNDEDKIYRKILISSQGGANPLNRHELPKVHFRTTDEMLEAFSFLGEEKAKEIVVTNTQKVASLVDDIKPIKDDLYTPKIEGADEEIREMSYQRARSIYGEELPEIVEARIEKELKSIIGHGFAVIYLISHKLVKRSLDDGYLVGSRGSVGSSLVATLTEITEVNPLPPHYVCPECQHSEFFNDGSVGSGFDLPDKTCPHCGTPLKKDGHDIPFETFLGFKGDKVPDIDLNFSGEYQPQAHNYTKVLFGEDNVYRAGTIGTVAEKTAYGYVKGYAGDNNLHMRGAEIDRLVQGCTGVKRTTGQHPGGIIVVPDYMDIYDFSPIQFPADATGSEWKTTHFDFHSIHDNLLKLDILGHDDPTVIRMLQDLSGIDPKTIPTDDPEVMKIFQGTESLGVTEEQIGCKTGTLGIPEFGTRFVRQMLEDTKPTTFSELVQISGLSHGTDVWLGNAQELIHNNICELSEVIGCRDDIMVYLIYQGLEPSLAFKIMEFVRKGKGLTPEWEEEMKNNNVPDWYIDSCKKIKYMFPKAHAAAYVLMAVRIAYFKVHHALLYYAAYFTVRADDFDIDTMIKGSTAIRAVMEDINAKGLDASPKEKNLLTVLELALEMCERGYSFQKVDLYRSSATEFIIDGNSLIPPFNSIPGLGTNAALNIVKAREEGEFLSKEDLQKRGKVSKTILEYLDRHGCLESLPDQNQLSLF

Row | Structure (SMILES) | Ki [1] [µM] | MIC [2] [µg/mL] | MIC [3] [µg/mL] | MIC [4] [µg/mL] | MIC [5] [µg/mL] | MIC [6] [µg/mL] | MIC [7, 8] [µg/mL] | MIC [7] [µg/mL]
1 | O=C(O)c1cn(C2CC2)c2cc(N3CCN(CCCCn4c(=O)cc(NCc5ccc(Cl)c(Cl)c5)[nH]c4=O)CC3)c(F)cc2c1=O [Compound 68, 3-{4-[1-(1-cyclopropyl-3-carboxy-4-oxo-6-fluoro-7-quinolyl)-4-piperazinyl]butyl}-6-(3,4-dichlorobenzylamino)uracil] | 0.047 | 0.95 (≈ 1.41 µM) | 1.25 (≈ 1.86 µM) | 0.625 (≈ 0.931 µM) | 40 (≈ 59.6 µM) | 1.25 (≈ 1.86 µM) | 12.5 (≈ 18.6 µM) | 
2 | CCc1cc(Nc2cc(=O)n(CCCCN3CCN(c4cc5c(cc4F)c(=O)c(C(=O)O)cn5C4CC4)C(C)C3)c(=O)[nH]2)ccc1C (stereo not shown) [Compound 69, 3-{4-[1-(1-cyclopropyl-3-carboxy-4-oxo-6-fluoro-7-quinolyl)-2-methyl-4-piperazinyl]butyl}-6-(3-ethyl-4-methylanilino)uracil] | 0.026 | 0.23 (≈ 0.357 µM) | 0.625 (≈ 0.969 µM) | 0.46 (≈ 0.713 µM) | 0.95 (≈ 1.47 µM) | 1.25 (≈ 1.94 µM) | 30 (≈ 46.5 µM) | 
3 | CCc1cc(Nc2cc(=O)n(CCCCN3CCN(c4c(F)cc5c(=O)c(C(=O)O)cn(C6CC6)c5c4F)C[C@@H]3C)c(=O)[nH]2)ccc1C [Compound 71, (S)-3-{4-[1-(1-cyclopropyl-3-carboxy-4-oxo-6,8-difluoro-7-quinolyl)-3-methyl-4-piperazinyl]butyl}-6-(3-ethyl-4-methylanilino)uracil] | 0.007 | 0.156 (≈ 0.235 µM) | 0.313 (≈ 0.472 µM) | 0.156 (≈ 0.235 µM) | 1.25 (≈ 1.89 µM) | 1.87 (≈ 2.82 µM) | 5 (≈ 7.54 µM) | 
4 | CCc1cc(Nc2cc(=O)n(CCCCN3CCN(c4c(F)cc5c(=O)c(C(=O)O)cn(C6CC6)c5c4F)C[C@H]3C)c(=O)[nH]2)ccc1C [Compound 72, (R)-3-{4-[1-(1-cyclopropyl-3-carboxy-4-oxo-6,8-difluoro-7-quinolyl)-3-methyl-4-piperazinyl]butyl}-6-(3-ethyl-4-methylanilino)uracil] | 0.004 | 0.156 (≈ 0.235 µM) | 0.625 (≈ 0.943 µM) | 0.625 (≈ 0.943 µM) | 1.25 (≈ 1.89 µM) | 1.25 (≈ 1.89 µM) | 20 (≈ 30.2 µM) | 
5 | CCc1cc(Nc2ccc(CCCCN3CCN(c4cc5c(cc4F)c(=O)c(C(=O)O)cn5CC)CC3)c(=O)[nH]2)ccc1C [Compound 78, 3-{4-[1-(1-ethyl-3-carboxy-4-oxo-6-fluoro-7-quinolyl)-4-piperazinyl]butyl}-6-(3-ethyl-4-methylanilino)-2-pyridone] | 2.4 | 0.625 (≈ 1.04 µM) | 1.25 (≈ 2.08 µM) | 2.5 (≈ 4.15 µM) | 5 (≈ 8.31 µM) | 5 (≈ 8.31 µM) | > 80 | 
6 | CCc1cc(Nc2cc(=O)n(CCCCN3CCN(c4ncc5c(=O)c(C(=O)O)cn(CC)c5n4)CC3)c(=O)[nH]2)ccc1C [Compound 79, 3-{4-[1-(1-ethyl-3-carboxy-4-oxo-6,8-diaza-7-quinolyl)-4-piperazinyl]butyl}-6-(3-ethyl-4-methylanilino)uracil] | 0.028 | 0.156 (≈ 0.259 µM) | 1.25 (≈ 2.07 µM) | 0.95 (≈ 1.58 µM) | 2.5 (≈ 4.15 µM) | 3.7 (≈ 6.14 µM) | > 80 | 
7 | CCc1cc(Nc2cc(=O)n(CCCCCN3CCCC4CN(c5cc6c(cc5F)c(=O)c(C(=O)O)cn6CC)CC43)c(=O)[nH]2)ccc1C (stereo not shown) [Compound 80, 3-{5-[1-(1-ethyl-3-carboxy-4-oxo-6-fluoro-7-quinolyl)-3-(1,3-diazabicyclononyl)]pentyl}-6-(3-ethyl-4-methylanilino)uracil] | 0.037 | 2.5 (≈ 3.72 µM) | 7.5 (≈ 11.1 µM) | 5 (≈ 7.43 µM) | 12.5 (≈ 18.6 µM) | 20 (≈ 29.7 µM) |  | 0.8 (≈ 1.19 µM)
8 | CCc1cc(Nc2cc(=O)n(CCCCCN3CCC4CN(c5cc6c(cc5F)c(=O)c(C(=O)O)cn6C5CC5)CC43)c(=O)[nH]2)ccc1C (stereo not shown) [Compound 81, 3-{5-[1-(1-cyclopropyl-3-carboxy-4-oxo-6-fluoro-7-quinolyl)-3-(1,3-diazabicyclooctyl)]pentyl}-6-(3-ethyl-4-methylanilino)uracil] | 0.04 | 1.25 (≈ 1.86 µM) | 5 (≈ 7.45 µM) | 2.5 (≈ 3.73 µM) | 3.7 (≈ 5.52 µM) | 12.5 (≈ 18.6 µM) | > 80 | 
9 | CCc1cc(Nc2cc(=O)n(CCCCCN3CCCC4CN(c5cc6c(cc5F)c(=O)c(C(=O)O)cn6C5CC5)CC43)c(=O)[nH]2)ccc1C (stereo not shown) [Compound 82, 3-{5-[1-(1-cyclopropyl-3-carboxy-4-oxo-6-fluoro-7-quinolyl)-3-(1,3-diazabicyclononyl)]pentyl}-6-(3-ethyl-4-methylanilino)uracil] | 0.041 | 1.25 (≈ 1.83 µM) | 2.5 (≈ 3.65 µM) | 1.25 (≈ 1.83 µM) | 20 (≈ 29.2 µM) | > 80 | > 80 | 
10 | CCc1cc(Nc2cc(=O)n(CCCCCNC3CCN(c4cc5c(cc4F)c(=O)c(C(=O)O)cn5C4CC4)C3)c(=O)[nH]2)ccc1C (stereo not shown) [Compound 83, 3-{5-[1-(1-cyclopropyl-3-carboxy-4-oxo-6-fluoro-7-quinolyl)-3-(pyrrolidinylamino)]pentyl}-6-(3-ethyl-4-methylanilino)uracil] | 0.041 | 3.7 (≈ 5.74 µM) | 20 (≈ 31 µM) | 5 (≈ 7.75 µM) | 5 (≈ 7.75 µM) | 40 (≈ 62 µM) | > 80 | 

Source: EP1401829B1, “NOVEL HETEROCYCLIC ANTIBACTERIAL COMPOUNDS” (Microbiotix, Inc., priority 2001, dated 2002)
